Results taken from patent US20150374660A1, “Ascorbate Esters of Omega-3 Fatty Acids and Their Formulations and Uses” (JIVA PHARMA, INC., priority 2013, published 2015).

Tests used:
[1] = test system: cultured primary human myocytes; experiment: fatty acid oxidation rates in cultured primary human myocytes (radiolabeled CO2 release); assay type: cell-based; settings: 48 hr, n=6; for differences from control in fatty acid oxidation: ethanol control, 30, 100 and 300 micromolar; for promotion of fatty acid oxidation (complete oxidation, CO2): normal primary human myocytes, 30, 100 and 300 micromolar, radiolabeled oleic acid, compared to EPAEE
Description: FIG. 1 is a graph of the data obtained from biology tests described herein of EPA and DHA ascorbates on fatty acid oxidation rates in cultured on normal primary human myocytes. The vertical axis is the complete oxidation (nmol CO2/mg protein). The statistical variance is shown by the “T” at the top of each bar. The #1 bar (solid coral) is the ethanol as control; #2 bars (solid gray, from left to right are 30, 100 and 300 micromolar) of EPA; #3 bars (solid green, from left to right are 30, 100 and 300 micromolar) of EPAX; #4 bars (hash red and white, from left to right are 30, 100 and 300 micromolar) of DHAX; and #5 bars (solid red, from left to right are 30, 100 and 300 micromolar) of EPAEE.
Effect of EPA and DHA ascorbates on fatty acid oxidation rates in cultured primary human myocytes were determined and discussed below.
Cell-based multiwell assays for the detection of substrate accumulation and oxidation are described in literature (A. J. Wensaas, et al., J. of Lipid Research 48, 961-967 (2007)) for detecting the accumulation as well as the subsequent oxidation of ^14C labeled substrates in cultured cells. Accumulation is monitored in real time by an established scintillation proximity assay in which the scintillator is embedded in the plate base primarily detecting cell-associated radiolabel. This method was applied, and the effect of EPA and DHA ascorbates on fatty acid oxidation rates in cultured primary human myocytes was determined The compounds tested were EPA, EPAX (EPAX), DHAX (DHAX), and EPAEE.
Cultured human primary myocytes from normal (non-diabetic, non-obese) subjects
Cells treated with 30, 100 and 300 micromolar of each compound for 48 hr
Cells grown in the presence of radiolabeled oleic acid
Radiolabeled CO2 released during the incubation was measured.
Each compound was tested 6 times (n=6)

[2] = cited from earlier work

| SMILES | differences from control in fatty acid oxidation [1] | promotion of fatty acid oxidation (complete oxidation, CO2) [1] | solubility in aqueous ethanol ([2]; aqueous ethanol) | solubility in water ([2]; water) |
| --- | --- | --- | --- | --- |
| CC/C=C\C/C=C\C/C=C\C/C=C\C/C=C\C/C=C\CCC(=O)OC[C@H](O)[C@H]1OC(=O)C(O)=C1O [DHA ascorbate] | not statistically significant | to a lesser degree | – | – |
| CC/C=C\C/C=C\C/C=C\C/C=C\C/C=C\CCCC(=O)OC[C@H](O)[C@H]1OC(=O)C(O)=C1O [EPA ascorbate] | not statistically significant | distinct trend | – | – |
| CCCCCCCCCCCCCCCC(=O)OC[C@H](O)[C@H]1OC(=O)C(O)=C1O [Palmitoyl ascorbate, 6-O-palmitoyl L-ascorbate] | – | – | soluble | sparingly soluble |
